From article PMC4110927 (Virology, 2013)
“And” between values parts separate entries of the source, which are not always exact repeats. Equal entries are not always repeated. Where a SMILES comes first, the peptide text is derived from it. Where no end group is shown, it is not given here.

Legend:
soluble HLA-B*0702 = soluble HLA-B*0702 (Homo sapiens, UniProt P01889); experiment: Fluorescence polarization; assay type: binding
soluble HLA-A*0201 = soluble HLA-A*0201 (Homo sapiens, UniProt P04439, D140Y/D185E/D98H/E176V/E277Q/G131W/G231S/I119V/I121R/I166T/I218V/L300P/L318F/N151K/N90K/P208A/P217A/Q86G/Q94H/R138H/R169H/T345S); experiment: Fluorescence polarization; assay type: binding
[1] = tested on: autologous PBMC of subject 8; experiment: Memory; assay type: cell-based, human
[2] = biological target: soluble HLA A*0201 or B*0702 (allele not stated for the peptide family); experiment: fluorescence polarisation
[3] = over the course of infection, time points as worded

Compound | IC50 (soluble HLA-B*0702) [µM] | other results
FPARPQVPL | 4.57 | –
RPNNNTRKCI | 42.7 | –
TPGPGIRYPL | 6.03 | –
IGPGRAFYAT | – | IC50 (soluble HLA-A*0201): 437 µM
SLFNTVATL | – | IC50 (soluble HLA-A*0201): 6.46 µM
SPRALNAWV | 11.7 | –
TLDAWVKVV | – | IC50 (soluble HLA-A*0201): 20 µM
RPNNDTRKSI | 7.08 | –
SLFNTIATL | – | IC50 (soluble HLA-A*0201): 8.32 µM
TPGPGPRYPL | 5.89 | –
TLSAWVKVV | – | IC50 (soluble HLA-A*0201): 15.1 µM
RPNNNTRRSI | 9.77 | –
CSCC[C@H](NC(=O)[C@@H]1CCCN1)C(=O)N[C@@H](CS)C(=O)N[C@@H](Cc1ccccc1)C(=O)NCC(=O)N[C@@H](Cc1c[nH]c2ccccc12)C(=O)N[C@@H](CS)C(=O)N[C@@H](Cc1ccccc1)C(=O)N[C@@H](CCCCN)C(=O)N[C@@H](CC(C)C)C(=O)O (H-PMCFGWCFKL-OH; N-terminus and C-terminus assumed) | – | memory T cell response (IFN-γ ELISPOT), in words ([1]; early cART / following cART (8.3–10.1 yr)): recovered during therapy; memory T cell response (IFN-γ ELISPOT), in words ([1]; late cART (>12.4 yr)): eventual loss; memory T cell response (IFN-γ ELISPOT), in words [1, 3]: no-to-low memory responses
SLFNTVAAL [SLFNTVAAL] | – | IC50 (soluble HLA-A*0201): 6.92 µM
IGPGIAFYAT | – | IC50 (soluble HLA-A*0201): 813 µM
RPMTYKGAL [RPMTYKGAL] | 7.76 | –
CSCC[C@H](NC(=O)[C@@H]1CCCN1C(=O)[C@@H](N)CCCNC(=N)N)C(=O)N[C@H](C(=O)N[C@@H](Cc1ccc(O)cc1)C(=O)N[C@@H](CCCCN)C(=O)N[C@@H](C)C(=O)N[C@@H](C)C(=O)N[C@@H](CC(C)C)C(=O)O)[C@@H](C)O [RPMTYKAAL] | 11 | –
TPGPGIRFPI | 5.89 | –
TSGPGTRFPL | 70.8 | –
RPNNNTRKSL | 4.9 | –
RPMTRKAAL [RPMTRKAAL] | 6.61 | –
CC(C)C[C@H](NC(=O)[C@@H](N)[C@@H](C)O)C(=O)N[C@@H](CC(N)=O)C(=O)N[C@@H](C)C(=O)N[C@@H](Cc1c[nH]c2ccccc12)C(=O)N[C@H](C(=O)N[C@@H](CCCCN)C(=O)N[C@H](C(=O)N[C@H](C(=O)O)C(C)C)C(C)C)C(C)C | – | IC50 (soluble HLA-A*0201): 14.5 µM

Compound | IC50 (soluble HLA-B*0702) [µM] | other results
Gag p24 143-151 […] (peptide) | – | logIC50 [2]: 4.34 and 3.92
TPGPGTRYPL | 3.72 | –
FPIRPQVPL | 4.17 | –
IGPGRAFYAA | – | IC50 (soluble HLA-A*0201): 30.2 µM
SPRTLDAWV | 24 | –
PITFGWCFKL | – | IC50 (soluble HLA-A*0201): 2240 µM
RPSNNTRKRI | 14.8 | –
CC(C)C[C@H](NC(=O)[C@@H](NC(=O)[C@H](CCCNC(=N)N)NC(=O)[C@@H]1CCCN1C(=O)[C@@H](N)CO)[C@@H](C)O)C(=O)N[C@@H](CC(N)=O)C(=O)N[C@@H](C)C(=O)N[C@@H](Cc1c[nH]c2ccccc12)C(=O)N[C@H](C(=O)O)C(C)C | 15.1 | –
ALNAWVKVV | – | IC50 (soluble HLA-A*0201): 8.51 µM
RPTNNTRKSI | 5.62 | –
RPNNNTRKST | 11 | –
RPMTCKGAL [RPMTCKGAL] | 5.5 | –
CC[C@H](C)[C@H](NC(=O)CNC(=O)[C@@H]1CCCN1C(=O)CNC(=O)[C@@H]1CCCN1C(=O)[C@@H](N)[C@@H](C)O)C(=O)N[C@@H](CCCNC(=N)N)C(=O)N[C@@H](Cc1ccc(O)cc1)C(=O)N1CCC[C@H]1C(=O)N[C@H](C(=O)O)C(C)C | 5.5 | –
TPGPGIRYPM | 3.16 | –
RPNNSTRKSI | 7.41 | –
CC(C)C[C@H](NC(=O)[C@@H]1CCCN1C(=O)[C@H](Cc1ccccc1)NC(=O)[C@H](CCCNC(=N)N)NC(=O)[C@@H](NC(=O)CNC(=O)[C@@H]1CCCN1C(=O)CNC(=O)[C@@H]1CCCN1C(=O)[C@@H](N)[C@@H](C)O)[C@@H](C)O)C(=O)O | 2.88 | –
SPRTLSAWV | 1200 | –
RPMTWKGAL [RPMTWKGAL] | 7.08 | –
CC(C)C[C@H](NC(=O)[C@H](CCCCN)NC(=O)[C@H](Cc1ccccc1)NC(=O)[C@H](CS)NC(=O)[C@H](Cc1c[nH]c2ccccc12)NC(=O)CNC(=O)[C@H](Cc1ccccc1)NC(=O)[C@H](CS)NC(=O)[C@H](CC(C)C)NC(=O)[C@@H]1CCCN1)C(=O)O (H-PLCFGWCFKL-OH; N-terminus and C-terminus assumed) | – | memory T cell response (IFN-γ ELISPOT), in words [1, 3]: no-to-low memory responses
TPGPGPRYPV | 6.61 | –
SPRPLNAWV | 15.1 | –
RSNNNTRKSI | 21.4 | –

Compound | IC50 (soluble HLA-B*0702) [µM] | other results
RPITYKAAL [RPITYKAAL] | 7.41 | –
Env gp160/120 341-349 […] (peptide) | – | logIC50 [2]: 4.36
CC(C)C[C@H](NC(=O)[C@@H]1CCCN1C(=O)[C@H](Cc1ccc(O)cc1)NC(=O)[C@H](CCCNC(=N)N)NC(=O)[C@@H](NC(=O)CNC(=O)[C@@H]1CCCN1C(=O)CNC(=O)[C@@H]1CCCN1C(=O)[C@@H](N)[C@@H](C)O)C(C)C)C(=O)O | 4.37 | –
IPGPGRHPL | 3.24 | –
TPGPGPRYPM | 3.72 | –
CC(C)C[C@H](NC(=O)[C@@H]1CCCN1C(=O)[C@H](Cc1ccccc1)NC(=O)[C@H](CCCNC(=N)N)NC(=O)[C@@H]1CCCN1C(=O)CNC(=O)[C@@H]1CCCN1C(=O)CNC(=O)[C@@H]1CCCN1C(=O)[C@@H](N)[C@@H](C)O)C(=O)O | 4.57 | –
RPMTWKAAL [RPMTWKAAL] | 7.24 | –
PLTLGWCFKL | – | IC50 (soluble HLA-A*0201): 1260 µM
PPRTLNAWV | 16.6 | –
SPVRPQVPL | 4.68 | –
CC[C@H](C)[C@H](NC(=O)[C@H](CCCNC(=N)N)NC(=O)[C@H](CCCCN)NC(=O)[C@H](CCCNC(=N)N)NC(=O)[C@@H](NC(=O)[C@H](CC(N)=O)NC(=O)[C@H](CC(N)=O)NC(=O)[C@H](CC(N)=O)NC(=O)[C@@H]1CCCN1C(=O)[C@@H](N)CCCNC(=N)N)[C@@H](C)O)C(=O)O | 20.9 | –
CC[C@H](C)[C@H](NC(=O)CNC(=O)[C@@H]1CCCN1C(=O)CNC(=O)[C@@H]1CCCN1C(=O)[C@@H](N)[C@@H](C)O)C(=O)N[C@@H](CCCNC(=N)N)C(=O)N[C@@H](Cc1ccccc1)C(=O)N1CCC[C@H]1C(=O)N[C@@H](CC(C)C)C(=O)O | 2.51 | –
FSVRPQVPL | 70.8 | –
TKGPGIRFPL | 257 | –
PLNAWVKVV | – | IC50 (soluble HLA-A*0201): 64.6 µM
CC(C)C[C@H](NC(=O)[C@@H]1CCCN1C(=O)[C@@H](NC(=O)[C@H](CCC(N)=O)NC(=O)[C@@H]1CCCN1C(=O)[C@H](CCCNC(=N)N)NC(=O)[C@@H](NC(=O)[C@@H]1CCCN1C(=O)[C@@H](N)Cc1ccccc1)C(C)C)C(C)C)C(=O)O | 6.76 | –
RPNNNTGKRI | 22.9 | –
PVTFGWCFKL | – | IC50 (soluble HLA-A*0201): 3020 µM
SLFNTVATP | – | IC50 (soluble HLA-A*0201): 174 µM
IGSGRAFYAT | – | IC50 (soluble HLA-A*0201): 3630 µM
RPNNNTRKSI | 3.63 | –
CC(C)C[C@H](NC(=O)[C@H](CCCCN)NC(=O)[C@H](Cc1ccccc1)NC(=O)[C@H](CS)NC(=O)[C@H](Cc1c[nH]c2ccccc12)NC(=O)CNC(=O)[C@H](Cc1ccccc1)NC(=O)[C@@H](NC(=O)[C@H](CC(C)C)NC(=O)[C@@H]1CCCN1)[C@@H](C)O)C(=O)O | – | IC50 (soluble HLA-A*0201): 3020 µM
